The target of one series is HSP90α (Homo sapiens, UniProt P07900). Briefly: HSP90α Binding Fluorescent Polarization (FP) Assay. The conditions noted are these: competition with FITC-geldanamycin; read-out: HSP90 Binding Potency. How it is done:
HSP90α Binding Fluorescent Polarization (FP) Assay
A master mix was prepared with assay buffer, BSA and FITC-geldanamycin. In a 96-well plate, a serial 3-fold dilution of each compound was prepared ranging from 40 μM down until 2.0 nM. Also in a 96-well plate, recombinant HSP90α protein was diluted to 28 μg/ml. Then, in a 384-well plate, 10 μl of master mix and 5 μl of compound dilution were added per well to duplicate wells and mixed by brief shaking. Then 5 μl of diluted HSP90α protein was added per well, mixed by brief shaking, incubated at 25° C. for 30, 60 and 120 min and fluorescence was measured on an EnVision Plate Reader. Background-subtracted mP values were calculated from EnVision raw data and a four-parameter “log[inhibitor] vs. response” curve was fitted using GraphPad Prism 7.0.

In the next series the target is T1, BRD4 (BD1+BD2) (Homo sapiens, UniProt O60885).
T1 construct: 1.8 μg/ml recombinant BRD4 (BD1+BD2 domains) protein
The conditions noted are these: read-out: BRD4 Binding Potency. On the procedure:
A master mix was prepared with assay buffer, 1.8 μg/ml recombinant BRD4 (BD1+BD2 domains) protein, and 200-fold dilutions of Tb-labeled donor and dye-labeled acceptor. 40-fold dilutions of acetylated and non-acetylated ligands were prepared in 1×BRD TR-FRET assay buffer. Also, a serial 3-fold dilution of each compound was prepared ranging from 40 μM down until 2.0 nM. In a 384-well plate, 5 μl diluted ligand and 5 μl of compound dilution were added per well to duplicate wells and mixed by brief shaking. Then 10 μl of master mix was added per well, mixed by brief shaking, incubated at 25° C. for 2 hr and fluorescence was measured on an EnVision Plate Reader. The 665 nm/615 nm ratio was calculated from EnVision raw data. Data were normalized using whole-plate averages of “positive” and “negative” readings. A four-parameter “log[inhibitor] vs. response” curve was fitted using GraphPad Prism 7.0.

The subject of the next series is MV4-11 cells. The series is described as follows: MV4-11 Cell Cytotoxicity Assay. Format: cell-based, human. The conditions noted are these: human, MV4-11 cells, CCK-8. The source says:
% Inhibition=100−(D−B)/(S−B)*100%.
S: The absorbance of the maximum (cells with DMSO)
B: The absorbance of the minimum (medium with DMSO)

As to `Cc1nn(-c2ccc(C(N)=O)c(NCCOCCC3CCN(C(=O)C[C@@H]4N=C(c5ccc(Cl)cc5)c5c(sc(C)c5C)-n5c(C)nnc54)CC3)c2)c2c1C(=O)CC(C)(C)C2` [Compound 23, 2-((2-(2-(1-(2-((6S)-4-(4-chlorophenyl)-2,3,9-trimethyl-6H-thieno[3,2-f][1,2,4]triazolo[4,3-a][1,4]diazepin-6-yl)acetyl)piperidin-4-yl)ethoxy)ethyl)amino)-4-(3,6,6-trimethyl-4-oxo-4,5,6,7-tetrahydro-1H-indazol-1-yl)benzamide, trifluoroacetic acid], the IC50 on HSP90α and on BRD4 (BD1+BD2) was over 1000 nM each time. In addition, in the series with MV4-11 cells, the IC50 at 72 h lay in the range of 100 to 1000 nM.
With `Cc1nn(-c2ccc(C(N)=O)c(NCCOCCN3CCN(C(=O)C[C@@H]4N=C(c5ccc(Cl)cc5)c5c(sc(C)c5C)-n5c(C)nnc54)CC3)c2)c2c1C(=O)CC(C)(C)C2` [Compound 24, 2-((2-(2-(4-(2-((6S)-4-(4-chlorophenyl)-2,3,9-trimethyl-6H-thieno[3,2-f][1,2,4]triazolo[4,3-a][1,4]diazepin-6-yl)acetyl)piperazin-1-yl)ethoxy)ethyl)amino)-4-(3,6,6-trimethyl-4-oxo-4,5,6,7-tetrahydro-1H-indazol-1-yl)benzamide], the IC50 at HSP90α and on BRD4 (BD1+BD2) was over 1000 nM in each case. Moreover, the IC50 at 72 h in the series with MV4-11 cells was 100 to 1000 nM.
Turning to `CC[C@@H](C)Nc1cc(C(=O)NC2C[C@H]3CC[C@H](C2)N3c2ccc(C(=O)c3ccc(CN4CCN(CC5CCN(C(=O)C[C@@H]6N=C(c7ccc(Cl)cc7)c7c(sc(C)c7C)-n7c(C)nnc76)CC5)CC4)cc3)cn2)c(C)cc1C(N)=O` (stereo partly drawn) [Compound 25, 5-(((R)-sec-butyl)amino)-N1-((1R,3r,5S)-8-(5-(4-((4-((1-(2-((S)-4-(4-chlorophenyl)-2,3,9-trimethyl-6H-thieno[3,2-f][1,2,4]triazolo[4,3-a][1,4]diazepin-6-yl)acetyl)piperidin-4-yl)methyl)piperazin-1-yl)methyl)benzoyl)pyridin-2-yl)-8-azabicyclo[3.2.1]octan-3-yl)-2-methylterephthalamide], the values for the IC50 at HSP90α and at BRD4 (BD1+BD2) were over 1000 nM and 100 to 1000 nM, respectively. Further, in the series with MV4-11 cells, the IC50 at 72 h fell in the range of 100 to 1000 nM.
For `CC[C@@H](C)Nc1cc(C(=O)NC2C[C@H]3CC[C@H](C2)N3c2ccc(C(=O)Nc3ccc(CN4CCN(CC5CCN(C(=O)C[C@@H]6N=C(c7ccc(Cl)cc7)c7c(sc(C)c7C)-n7c(C)nnc76)CC5)CC4)cc3)cn2)c(C)cc1C(N)=O` (stereo partly drawn) [Compound 26, 5-((R)-sec-butylamino)-N1-((1R,5R)-8-(5-((4-((4-((1-(2-((6S)-4-(4-chlorophenyl)-2,3,9-trimethyl-6H-thieno[3,2-f][1,2,4]triazolo[4,3-a][1,4]diazepin-6-yl)acetyl)piperidin-4-yl)methyl)piperazin-1-yl)methyl)phenyl)carbamoyl)pyridin-2-yl)-8-azabicyclo[3.2.1]octan-3-yl)-2-methylterephthalamide, formic acid], the IC50 is over 1000 nM at HSP90α and 100 to 1000 nM at BRD4 (BD1+BD2). Moreover, the IC50 at 72 h with MV4-11 cells was under 100 nM.
For `CCc1cc(-c2nnc(O)n2-c2ccc(CN3CCN(CC4CCN(C(=O)C[C@H]5N=C(c6ccc(Cl)cc6)c6c(sc(C)c6C)-n6c(C)nnc65)CC4)CC3)cc2)c(O)cc1O` [Compound 27, 2-((6R)-4-(4-chlorophenyl)-2,3,9-trimethyl-6H-thieno[3,2-f][1,2,4]triazolo[4,3-a][1,4]diazepin-6-yl)-1-(4-((4-(4-(3-(5-ethyl-2,4-dihydroxyphenyl)-5-hydroxy-4H-1,2,4-triazol-4-yl)benzyl)piperazin-1-yl)methyl)piperidin-1-yl)ethanone, trifluoroacetic acid], the values for the IC50 on HSP90α and on BRD4 (BD1+BD2) were 100 to 1000 nM and over 1000 nM, respectively. This compound also had an IC50 at 72 h in the series with MV4-11 cells of under 100 nM.
The like results for `Cc1sc2c(c1C)C(c1ccc(Cl)cc1)=N[C@@H](CC(=O)NCc1ccc(-n3c(S)nnc3-c3cc(C(C)C)c(O)cc3O)cc1)c1nnc(C)n1-2` [Compound 28, (S)-2-(4-(4-chlorophenyl)-2,3,9-trimethyl-6H-thieno[3,2-f][1,2,4]triazolo[4,3-a][1,4]diazepin-6-yl)-N-(4-(3-(2,4-dihydroxy-5-isopropylphenyl)-5-mercapto-4H-1,2,4-triazol-4-yl)benzyl)acetamide] were, in that order, 100 to 1000 nM, 100 to 1000 nM and 100 to 1000 nM.
On to `Cc1sc2c(c1C)C(c1ccc(Cl)cc1)=N[C@@H](CC(=O)N1CCN(C(=O)C3CCN(c4ccc(-n5c(O)nnc5-c5cc(C(C)C)c(O)cc5O)cc4)CC3)CC1)c1nnc(C)n1-2` [Compound 29, (S)-2-(4-(4-chlorophenyl)-2,3,9-trimethyl-6H-thieno[3,2-f][1,2,4]triazolo[4,3-a][1,4]diazepin-6-yl)-1-(4-(1-(4-(3-(2,4-dihydroxy-5-isopropylphenyl)-5-hydroxy-4H-1,2,4-triazol-4-yl)phenyl)piperidine-4-carbonyl)piperazin-1-yl)ethan-1-one], for which the IC50 at HSP90α and at BRD4 (BD1+BD2) was over 1000 nM throughout. For the same compound, the IC50 at 72 h with MV4-11 cells is 100 to 1000 nM.
Regarding `Cc1sc2c(c1C)C(c1ccc(Cl)cc1)=N[C@@H](CC(=O)NCCOc1ccc(-n3c(S)nnc3-c3cc(C(C)C)c(O)cc3O)cc1)c1nnc(C)n1-2` [Compound 32, (S)-2-(4-(4-chlorophenyl)-2,3,9-trimethyl-6H-thieno[3,2-f][1,2,4]triazolo[4,3-a][1,4]diazepin-6-yl)-N-(2-(4-(3-(2,4-dihydroxy-5-isopropylphenyl)-5-mercapto-4H-1,2,4-triazol-4-yl)phenoxy)ethyl)acetamide], the IC50 on HSP90α is 100 to 1000 nM; at BRD4 (BD1+BD2), over 1000 nM. The same compound showed an IC50 at 72 h in the series on MV4-11 cells of 100 to 1000 nM.
In the case of `Cc1sc2c(c1C)C(c1ccc(Cl)cc1)=N[C@@H](CC(=O)NCCOCCOc1ccc(-n3c(S)nnc3-c3cc(C(C)C)c(O)cc3O)cc1)c1nnc(C)n1-2` [Compound 33, (S)-2-(4-(4-chlorophenyl)-2,3,9-trimethyl-6H-thieno[3,2-f][1,2,4]triazolo[4,3-a][1,4]diazepin-6-yl)-N-(2-(2-(4-(3-(2,4-dihydroxy-5-isopropylphenyl)-5-mercapto-4H-1,2,4-triazol-4-yl)phenoxy)ethoxy)ethyl)acetamide], the IC50 at HSP90α and at BRD4 (BD1+BD2) was 100 to 1000 nM each time. The compound also returned an IC50 at 72 h in the series on MV4-11 cells of 100 to 1000 nM.
For the compound `Cc1sc2c(c1C)C(c1ccc(Cl)cc1)=N[C@@H](CC(=O)NCCOCCOCCOc1ccc(-n3c(S)nnc3-c3cc(C(C)C)c(O)cc3O)cc1)c1nnc(C)n1-2` [Compound 34, (S)-2-(4-(4-chlorophenyl)-2,3,9-trimethyl-6H-thieno[3,2-f][1,2,4]triazolo[4,3-a][1,4]diazepin-6-yl)-N-(2-(2-(2-(4-(3-(2,4-dihydroxy-5-isopropylphenyl)-5-mercapto-4H-1,2,4-triazol-4-yl)phenoxy)ethoxy)ethoxy)ethyl)acetamide], the IC50 at HSP90α and at BRD4 (BD1+BD2) was over 1000 nM throughout. Further, the IC50 at 72 h in the series with MV4-11 cells lay within 100 to 1000 nM.
On to `Cc1sc2c(c1C)C(c1ccc(Cl)cc1)=N[C@@H](CC(=O)NCCOCCN1CCC(Cc3ccc(-n4c(O)nnc4-c4cc(C(C)C)c(O)cc4O)cc3)CC1)c1nnc(C)n1-2` [Compound 37, 2-((6S)-4-(4-chlorophenyl)-2,3,9-trimethyl-6H-thieno[3,2-f][1,2,4]triazolo[4,3-a][1,4]diazepin-6-yl)-N-(2-(2-(4-(4-(3-(2,4-dihydroxy-5-isopropylphenyl)-5-hydroxy-4H-1,2,4-triazol-4-yl)benzyl)piperidin-1-yl)ethoxy)ethyl)acetamide, trifluoroacetic acid], for which the IC50 at HSP90α and on BRD4 (BD1+BD2) was under 100 nM in each case. Moreover, in the series on MV4-11 cells, the IC50 at 72 h lay in the range of 100 to 1000 nM.
As for `Cc1sc2c(c1C)C(c1ccc(Cl)cc1)=N[C@@H](CC(=O)N1CCN(Cc3ccc(-n4c(O)nnc4-c4cc(C(C)C)c(O)cc4O)cc3)CC1)c1nnc(C)n1-2` [Compound 38, 2-((6S)-4-(4-chlorophenyl)-2,3,9-trimethyl-6H-thieno[3,2-f][1,2,4]triazolo[4,3-a][1,4]diazepin-6-yl)-1-(4-(4-(3-(2,4-dihydroxy-5-isopropylphenyl)-5-hydroxy-4H-1,2,4-triazol-4-yl)benzyl)piperazin-1-yl)ethanone, trifluoroacetic acid], the IC50 on HSP90α was 100 to 1000 nM; at BRD4 (BD1+BD2), over 1000 nM. The compound also returned an IC50 at 72 h in the series on MV4-11 cells of under 100 nM.
The corresponding values for `Cc1sc2c(c1C)C(c1ccc(Cl)cc1)=N[C@@H](CC(=O)NCCc1ccc(-n3c(O)nnc3-c3cc(C(C)C)c(O)cc3O)cc1)c1nnc(C)n1-2` [Compound 39, 2-((6S)-4-(4-chlorophenyl)-2,3,9-trimethyl-6H-thieno[3,2-f][1,2,4]triazolo[4,3-a][1,4]diazepin-6-yl)-N-(4-(3-(2,4-dihydroxy-5-isopropylphenyl)-5-hydroxy-4H-1,2,4-triazol-4-yl)phenethyl)acetamide] are 100 to 1000 nM, 100 to 1000 nM and under 100 nM.

The values are drawn from patent US20220168427A1 (Ranok Therapeutics (Hangzhou) Co. Ltd., priority 2019, published 2022).
